{"source": "patent US4347319A", "about": "“Microbiological epoxidation process” (priority 1980, dated 1982)", "type_in_all_cases": "biochemical", "key": {"[1]": {"target": "T1, cell fractions of Methylosinus sp. (CRL-15, NRRL B-11,202) (Methylosinus trichosporium, UniProt Q50541+Q9KX50+Q9KX51)", "T1 sequence (Q9KX50 40-431)": "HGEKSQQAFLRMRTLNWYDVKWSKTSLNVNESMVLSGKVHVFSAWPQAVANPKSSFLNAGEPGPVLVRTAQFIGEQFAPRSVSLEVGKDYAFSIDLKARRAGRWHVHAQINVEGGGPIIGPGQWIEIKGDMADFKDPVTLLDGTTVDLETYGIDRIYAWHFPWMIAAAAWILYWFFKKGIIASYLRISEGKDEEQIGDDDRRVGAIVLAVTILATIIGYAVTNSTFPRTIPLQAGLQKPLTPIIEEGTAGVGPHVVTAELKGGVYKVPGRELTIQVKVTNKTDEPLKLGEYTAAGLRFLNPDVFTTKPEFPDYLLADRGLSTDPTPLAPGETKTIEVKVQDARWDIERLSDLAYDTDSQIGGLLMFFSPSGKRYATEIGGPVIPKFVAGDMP", "T1 sequence (Q50541 1-252)": "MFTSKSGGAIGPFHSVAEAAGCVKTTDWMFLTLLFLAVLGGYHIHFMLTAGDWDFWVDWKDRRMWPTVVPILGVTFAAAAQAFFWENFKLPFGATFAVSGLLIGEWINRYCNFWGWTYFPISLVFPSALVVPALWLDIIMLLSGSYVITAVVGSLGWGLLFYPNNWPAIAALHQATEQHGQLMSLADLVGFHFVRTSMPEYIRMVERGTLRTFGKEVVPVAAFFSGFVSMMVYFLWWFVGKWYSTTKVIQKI", "T1 sequence (Q9KX51 1-256)": "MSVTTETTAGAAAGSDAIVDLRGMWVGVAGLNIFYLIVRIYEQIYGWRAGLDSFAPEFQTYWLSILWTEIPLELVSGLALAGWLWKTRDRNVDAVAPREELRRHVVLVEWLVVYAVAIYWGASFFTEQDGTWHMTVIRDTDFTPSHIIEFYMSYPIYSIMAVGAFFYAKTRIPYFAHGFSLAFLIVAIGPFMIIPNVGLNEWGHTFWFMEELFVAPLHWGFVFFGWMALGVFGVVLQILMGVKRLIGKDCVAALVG", "assay": "Oxidation by cell fractions P(40), P(80), S(80)", "conditions": "for Rate of Product Formation: P(40) particulate fraction, alkene to epoxide, alkane to alcohol; for Rate of Product Formation / Oxidizing Activity (rate of oxidation) in cell fraction: 30° C.; for Conversion Rate: particulate P(40) fraction, n-propane to 2-propanol, n-butane to 2-butanol; for 100% activity, product formed (storage study) / 100% activity, product formed (pH study) / 100% activity, product formed (temperature study) / Oxidizing Activity (rate of oxidation) in cell fraction: methane to methanol, propylene to propylene oxide; for 100% activity, product formed (pH study): optimum pH 7.0; for 100% activity, product formed (temperature study): optimum temperature 35° C.; for % Distribution in Cell Fraction: propylene-epoxidizing / methane-hydroxylating activity; for Product Formed / O2 Consumed / NADH Oxidized: stoichiometry, 5.0 μ moles substrate; for Product Formed: gas chromatography; for O2 Consumed: polarographically; for NADH Oxidized: spectrophotometrically", "method_in_brief": "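Cells washed and French-press disrupted in 25 mM K phosphate pH 7.0 with 5 mM MgCl2; particulate P(40), P(80) and soluble S(80) fractions from 40,000×g and 80,000×g spins. Methane or propylene (1:1 with O2) oxidised at 30° C with NADH; methanol/propylene oxide by GC; activity as μmoles product/h/mg protein.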"}, "[2]": {"target": "T2, cell fractions of Methylococcus capsulatus (Texas, ATCC 19,069) (Methylococcus capsulatus, UniProt G1UBD1+Q603F1+Q607G3)", "T2 sequence (G1UBD1 33-414)": "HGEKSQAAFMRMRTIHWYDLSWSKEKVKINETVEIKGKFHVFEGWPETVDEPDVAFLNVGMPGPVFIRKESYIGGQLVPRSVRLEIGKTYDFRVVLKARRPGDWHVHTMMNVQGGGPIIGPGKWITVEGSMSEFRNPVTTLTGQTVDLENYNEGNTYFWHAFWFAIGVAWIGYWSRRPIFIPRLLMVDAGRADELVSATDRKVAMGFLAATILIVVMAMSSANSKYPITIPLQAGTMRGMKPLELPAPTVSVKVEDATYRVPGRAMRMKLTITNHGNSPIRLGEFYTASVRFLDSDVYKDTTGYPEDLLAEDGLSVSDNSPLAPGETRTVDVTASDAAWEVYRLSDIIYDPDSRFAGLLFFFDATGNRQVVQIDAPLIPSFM", "T2 sequence (Q607G3 1-247)": "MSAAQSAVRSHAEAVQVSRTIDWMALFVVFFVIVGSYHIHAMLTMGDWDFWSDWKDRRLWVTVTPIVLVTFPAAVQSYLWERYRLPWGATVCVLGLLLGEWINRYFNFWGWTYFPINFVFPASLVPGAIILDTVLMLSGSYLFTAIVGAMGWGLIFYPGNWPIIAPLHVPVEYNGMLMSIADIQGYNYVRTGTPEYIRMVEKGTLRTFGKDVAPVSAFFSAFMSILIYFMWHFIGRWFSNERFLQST", "T2 sequence (Q603F1 1-260)": "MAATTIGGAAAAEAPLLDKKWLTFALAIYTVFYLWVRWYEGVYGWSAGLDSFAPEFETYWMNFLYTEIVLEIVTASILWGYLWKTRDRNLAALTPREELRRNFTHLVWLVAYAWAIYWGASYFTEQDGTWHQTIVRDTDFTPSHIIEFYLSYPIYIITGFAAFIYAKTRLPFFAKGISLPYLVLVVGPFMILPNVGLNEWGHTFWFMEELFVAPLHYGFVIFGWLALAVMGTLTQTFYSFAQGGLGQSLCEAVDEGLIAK", "assay": "Oxidation by cell fractions P(40), P(80), S(80)", "conditions": "for Conversion Rate: particulate P(40) fraction, n-propane to 2-propanol, n-butane to 2-butanol; for Oxidizing Activity (rate of oxidation) in cell fraction: propylene to propylene oxide, methane to methanol, 30° C.; for % Distribution in Cell Fraction: propylene-epoxidizing / methane-hydroxylating activity"}, "[3]": {"tested_on": "cell fractions of Methylosinus trichosporium (OB3b, NRRL B-11,196)", "conditions": "S(80); propylene to propylene oxide, methane to methanol; 30° C.", "procedure": "Cells were washed twice with 25 mM potassium phosphate buffer, pH 7.0 containing 5 mM MgCl2. Cells were suspended in the same buffer. The cell suspensions at 4° C. were disintegrated by a single passage through a French Pressure cell (15,000 lb./in.^2) and centrifuged at 5000×g. for 15 min. to remove unbroken bacteria. The supernatant solution (crude extract) was then centrifuged at 40,000×g. for 30 min., yielding particulate P(40) and soluble S(40) fractions. The S(40) fraction was subsequently centrifuged at 80,000×g. for 60 min., yielding particulate P(80) and soluble S(80) fractions. The particulate fractions [P(40) and P(80)] were suspended in 25 mM potassium phosphate buffer, pH 7.0, containing 5 mM MgCl2 and homogenized at 4° C.\nThe oxidation of methane and propylene by particulate [(P)40 and (P)80] fractions and soluble [S(80)] fraction was measured at 30° C. by estimating the production of methanol and propylene oxide, respectively. The reaction mixtures contained in […]: 150 mM potassium phosphate buffer, pH 7.0 containing 5 mM MgCl2 b, 0.6 ml; 10μ moles NADH, and cellular fraction.\nReaction mixtures were contained in 10 ml vials at 4° C. Vials were sealed with rubber caps. The gaseous phase in the vials was removed using vacuum and then was replaced with a gas mixture of methane or propylene and oxygen at a 1:1, v/v ratio. Oxidation of other gaseous n-alkanes and n-alkanes was examined as described above. For liquid substrates, 10 μl of substrate was used directly.\nThe products of epoxidation of n-alkenes and hydroxylation of n-alkanes were assayed by flame ionization gas chromatography using a stainless steel column (12'×1/8\") packed with 10% Carbowax 20 M on 80/100 Chromosorb W and Porapak Q column. The column temperature was maintained isothermally at 120° C. The carrier gas flow rate was 30 ml/min. of helium. The various products were identified by retention time comparisons and co-chromatography with authentic standards.\nSpecific activities were expressed as μ moles of products formed per hour per mg. protein. Concentrations of protein in various fractions were determined by the method of Lowry et al., J. Biol. Chem., 193: 265-275 (1951)."}}}
{"smiles": "C=CC=C", "note": "[Butadiene]", "values": [{"measurement": "Rate of Product Formation", "setting": "[1]", "value": "0.63 μ moles/hr/mg of protein"}]}
{"smiles": "CCCC", "note": "[Butane]", "values": [{"measurement": "Conversion Rate", "setting": "[1]", "value": "0.89 μmoles/hr/2.0mg. of protein"}, {"measurement": "Conversion Rate", "setting": "[2]", "value": "0.92 μmoles/hr/2.0mg. of protein"}]}
{"smiles": "C", "note": "[Methane]", "values": [{"measurement": "Rate of Product Formation", "setting": "[1]", "value": "4.8 μ moles/hr/mg of protein"}, {"measurement": "100% activity, product formed (storage study)", "setting": "[1]; P(40)", "value": "4.8 μmoles per hr. per mg. of prot"}, {"measurement": "100% activity, product formed (pH study)", "setting": "[1]; P(40)", "value": "4.8 μmoles per hour per mg protein"}, {"measurement": "100% activity, product formed (temperature study)", "setting": "[1]; P(40)", "value": "5.0 μmoles per hour per mg of prot"}, {"measurement": "Oxidizing Activity (rate of oxidation) in cell fraction", "setting": "[1]; P(40)", "value": "4.8 μ moles of products formed per"}, {"measurement": "% Distribution in Cell Fraction", "setting": "[1]; P(40)", "value": 88, "unit": "%"}, {"measurement": "Oxidizing Activity (rate of oxidation) in cell fraction", "setting": "[1]; P(80)", "value": "4.2 μ moles of products formed per"}, {"measurement": "% Distribution in Cell Fraction", "setting": "[1]; P(80)", "value": 12, "unit": "%"}, {"measurement": "Oxidizing Activity (rate of oxidation) in cell fraction", "setting": "[1]; S(80)", "value": "0 μ moles of products formed per"}, {"measurement": "% Distribution in Cell Fraction", "setting": "[1]; S(80)", "value": 0, "unit": "%"}, {"measurement": "Product Formed", "setting": "[1]; P(40)", "value": 4.2, "unit": "μ moles"}, {"measurement": "O2 Consumed", "setting": "[1]; P(40)", "value": 4.6, "unit": "μ moles"}, {"measurement": "NADH Oxidized", "setting": "[1]; P(40)", "value": 4.8, "unit": "μ moles"}, {"measurement": "Oxidizing Activity (rate of oxidation) in cell fraction", "setting": "[2]; P(40)", "value": "3.8 μ moles of products formed per"}, {"measurement": "% Distribution in Cell Fraction", "setting": "[2]; P(40)", "value": 90, "unit": "%"}, {"measurement": "Oxidizing Activity (rate of oxidation) in cell fraction", "setting": "[2]; P(80)", "value": "3.9 μ moles of products formed per"}, {"measurement": "% Distribution in Cell Fraction", "setting": "[2]; P(80)", "value": 10, "unit": "%"}, {"measurement": "Oxidizing Activity (rate of oxidation) in cell fraction", "setting": "[2]; S(80)", "value": "0 μ moles of products formed per"}, {"measurement": "% Distribution in Cell Fraction", "setting": "[2]; S(80)", "value": 0, "unit": "%"}, {"measurement": "Oxidizing Activity (rate of oxidation) in cell fraction", "setting": "[3]", "value": "0 μ moles of products formed per"}]}
{"smiles": "CCC", "note": "[Propane]", "values": [{"measurement": "Conversion Rate", "setting": "[1]", "value": "1.5 μmoles/hr/2.0mg. of protein"}, {"measurement": "Conversion Rate", "setting": "[2]", "value": "1.2 μmoles/hr/2.0mg. of protein"}]}
{"smiles": "C=CC", "note": "[Propylene]", "values": [{"measurement": "Rate of Product Formation", "setting": "[1]", "value": "4.1 μ moles/hr/mg of protein"}, {"measurement": "100% activity, product formed (storage study)", "setting": "[1]; P(40)", "value": "4.1 μmoles per hr. per mg. of prot"}, {"measurement": "100% activity, product formed (pH study)", "setting": "[1]; P(40)", "value": "4.1 μmoles per hour per mg protein"}, {"measurement": "100% activity, product formed (temperature study)", "setting": "[1]; P(40)", "value": "4.2 μmoles per hour per mg of prot"}, {"measurement": "Oxidizing Activity (rate of oxidation) in cell fraction", "setting": "[1]; P(40)", "value": "3.8 μ moles of products formed per"}, {"measurement": "% Distribution in Cell Fraction", "setting": "[1]; P(40)", "value": 87, "unit": "%"}, {"measurement": "Oxidizing Activity (rate of oxidation) in cell fraction", "setting": "[1]; P(80)", "value": "3.7 μ moles of products formed per"}, {"measurement": "% Distribution in Cell Fraction", "setting": "[1]; P(80)", "value": 13, "unit": "%"}, {"measurement": "Oxidizing Activity (rate of oxidation) in cell fraction", "setting": "[1]; S(80)", "value": "0 μ moles of products formed per"}, {"measurement": "% Distribution in Cell Fraction", "setting": "[1]; S(80)", "value": 0, "unit": "%"}, {"measurement": "Product Formed", "setting": "[1]; P(40)", "value": 4.5, "unit": "μ moles"}, {"measurement": "O2 Consumed", "setting": "[1]; P(40)", "value": 4.8, "unit": "μ moles"}, {"measurement": "NADH Oxidized", "setting": "[1]; P(40)", "value": 5.0, "unit": "μ moles"}, {"measurement": "Oxidizing Activity (rate of oxidation) in cell fraction", "setting": "[2]; P(40)", "value": "2.6 μ moles of products formed per"}, {"measurement": "% Distribution in Cell Fraction", "setting": "[2]; P(40)", "value": 89, "unit": "%"}, {"measurement": "Oxidizing Activity (rate of oxidation) in cell fraction", "setting": "[2]; P(80)", "value": "2.0 μ moles of products formed per"}, {"measurement": "% Distribution in Cell Fraction", "setting": "[2]; P(80)", "value": 11, "unit": "%"}, {"measurement": "Oxidizing Activity (rate of oxidation) in cell fraction", "setting": "[2]; S(80)", "value": "0 μ moles of products formed per"}, {"measurement": "% Distribution in Cell Fraction", "setting": "[2]; S(80)", "value": 0, "unit": "%"}, {"measurement": "Oxidizing Activity (rate of oxidation) in cell fraction", "setting": "[3]", "value": "0 μ moles of products formed per"}]}
